According to patent US20030017186A1, “Carboxylic acid fluorides as pesticides” (priority 1999, published 2003):

How the values were obtained:
[1] = test system: Rice weevil (Sitophilus oryzae) larvae; experiment: Fumigation test in glass vessel, rice weevil larvae in grain seeds; assay type: in vivo; settings: SITTOR larvae in grain seeds
Description: a2) Rice weevil (Sitophilus oryzae)=SITTOR
(§1) The test organisms, separated by species, were placed into a glass vessel measuring 30 cm×30 cm×60 cm, which was sealed with a glass lid so as to be airtight. The adults and the larvae of the mealworm beetle (Tenebrio molitor) and the broad-horned flour beetle (Gnathocerus cornutus) were placed into small glass vessels approximately 5 cm in diameter, which were closed with a gauze lid and in which they could freely move about. The larvae of the rice weevil had burrowed into seeds of grain. The wood pest larvae were inserted into small blocks of wood measuring 5 cm×2.5 cm×2 cm. The openings were sealed with wads of cotton wool. Only one each of the larvae of the house longhorn beetle (Hylotrupes bajulus) was inserted into a piece of wood, while 6-8 larvae of the common furniture beetle (Anobium punctatum) were inserted into each piece of wood.
(§2) The respective gas was then introduced into the fumigation vessel through a gas line from a gas tank that contained the specified amount of gas. After a defined time period, the fumigation vessel was purged with compressed air. The discharged gas was purified by an attached gas scrubber.
(§3) The beetles were observed until they died. This point was recorded for each species. The larvae of the wood pests as well as the larvae of the rice weevil (Sitophilus oryzae) had to be picked out of the wood or the grain to check their condition. If any of the animals were still alive, the wooden test blocks remaining in the vessel were fumigated again and were reexamined after the corresponding time span had elapsed. The same number of animals in the untreated control was also checked at each point.
(§4) The vitality of the animals was checked at certain time intervals. The beetles could be observed through the fumigation vessel. This was also true for the larvae of the mealworm beetle and the broad-horned flour beetle. The wooden test blocks of the wood pest larvae were opened with hammer and chisel. Tweezers were used to pull the rice weevil larvae out of the grain seeds. The exact time intervals and the number of the evaluated pests were documented in the test results.

[2] = test system: Broad-horned flour beetle (Gnathocerus cornutus) larvae; experiment: Fumigation test in glass vessel, broad-horned flour beetle larvae; assay type: in vivo; settings: GNATCO larvae
[3] = test system: American drywood termites (Cryptotermes brevis); experiment: Termite control fumigation test, Cryptotermes brevis; assay type: in vivo; settings: Example 6
Description: (§5) c) American drywood termites (Cryptotermes brevis)=CRYPBR, and Incisitermes tabogae=INCITA
as §1, §2, §3, §4

[4] = test system: House longhorn beetle (Hylotrupes bajulus); experiment: Fumigation test in glass vessel, house longhorn beetles; assay type: in vivo
[5] = test system: Common furniture beetle (Anobium punctatum) larvae; experiment: Fumigation test in glass vessel, common furniture beetle larvae in wood blocks; assay type: in vivo; settings: ANOBPU larvae in wood blocks
wood and storage pests = experiment: Fumigation test, wood and storage pests (overall statements); assay type: in vivo
Description: as §1, §2, §3, §4

[6] = test system: House longhorn beetle (Hylotrupes bajulus) larvae; experiment: Fumigation test in glass vessel, house longhorn beetle larvae in wood blocks; assay type: in vivo; settings: HYLOBA larvae in wood blocks
termites = experiment: Termite control fumigation test (overall statements); assay type: in vivo, Cryptotermes brevis, Incisitermes tabogae; settings: Example 6
Description: as §5, §1, §2, §3
The vitality of the animals was checked at certain time intervals. The beetles could be observed through the fumigation vessel. This was also true for the larvae of the mealworm beetle and the broad-horned flour beetle. […] The exact time intervals and the number of the evaluated pests were documented in the test results.

[7] = test system: Common furniture beetle (Anobium punctatum); experiment: Fumigation test in glass vessel, common furniture beetles; assay type: in vivo; settings: ANOBPU beetles; Example 5; ACF 50.6/48.2/51.4 g/m^3, SF 47.4/44.6/41 g/m^3 (1st/2nd/3rd fumigation); 23/23/22° C.
Description: b2) Common furniture beetle (Anobium punctatum)=[…]
as §1, §2, §3, §4

[8] = test system: wood pests (house longhorn beetle, common furniture beetle); experiment: Fumigation test, wood pests; assay type: in vivo, Hylotrupes bajulus, Anobium punctatum
Description: as §1, §2, §3, §4

[9] = test system: Mealworm beetle (Tenebrio molitor); experiment: Fumigation test in glass vessel, mealworm beetles; assay type: in vivo; settings: TENEMO beetles
[10] = Example 4, gas 36.5 g/m^3, 19.3° C., 54% rel. air humidity
[11] = Example 5, ACF 50.6/48.2/51.4 g/m^3, SF 47.4/44.6/41 g/m^3 (1st/2nd/3rd fumigation), 23/23/22° C.
[12] = Example 7, ACF 53.0/54.6/0 g/m^3, second gas (SF) 43.6/41.4/39.8 g/m^3 (1st/2nd/3rd fumigation), 20.0/20.2/19.8 C.
[13] = CRYPBR termites, ACF 50.0/53.8 g/m^3, SF 47.8/44.8 g/m^3 (1st/2nd fumigation), 23.7/24° C.
[14] = HYLOBA beetles, Example 5, ACF 50.6/48.2/51.4 g/m^3, SF 47.4/44.6/41 g/m^3 (1st/2nd/3rd fumigation), 23/23/22° C.
[15] = HYLOBA beetles, Example 7, ACF 53.0/54.6/0 g/m^3, second gas (SF) 43.6/41.4/39.8 g/m^3 (1st/2nd/3rd fumigation), 20.0/20.2/19.8 C.

CC(=O)F [ACF, acetyl fluoride]
Number alive, 24 hrs. after Start of Fumigation [1, 10]: 0
Number dead, 24 hrs. after Start of Fumigation [1, 10]: 25
Number alive, 1 hr. after Start of Fumigation [1, 11]: 0
Number dead, 1 hr. after Start of Fumigation [1, 11]: 15
Number alive, 1 hr. after Start of Fumigation [2, 10]: 0
Number dead, 1 hr. after Start of Fumigation [2, 10]: 25
Number alive, 30 min. after Start of Fumigation [2, 11]: 0
Number dead, 30 min. after Start of Fumigation [2, 11]: 15
Number alive, 30 min. after 1st Fumigation [2, 12]: 0
Number dead, 30 min. after 1st Fumigation [2, 12]: 15
Number alive, 30 min. after 1st Fumigation [3, 13]: 180
Number alive, 1 hr. after 1st Fumigation [3, 13]: 60
Number alive, 3 hrs. after 1st Fumigation [3, 13]: 0
Number dead, 30 min. after 1st Fumigation [3, 13]: 0
Number dead, 1 hr. after 1st Fumigation [3, 13]: 0
Number dead, 3 hrs. after 1st Fumigation [3, 13]: 120
Effectiveness against Cryptotermes [3]: particularly effective
Condition of Cryptotermes on reexamination after 24-hour observation period ([3]; animals fumigated 1 hour, then 24-hour observation): dead
Time after which the house longhorn beetles were dead ([4]; Example 4, 3 house longhorn beetles, gas 36.5 g/m^3, 19.3° C.): 15 min
Number alive, 30 min. after Start of Fumigation [4, 14]: 0
Number dead, 30 min. after Start of Fumigation [4, 14]: 4
Number alive, 30 min. after 1st Fumigation [4, 15]: 3
Number alive, 1 hr. after 1st Fumigation [4, 15]: 0
Number dead, 30 min. after 1st Fumigation [4, 15]: 3
Number dead, 1 hr. after 1st Fumigation [4, 15]: 6
Number alive, 1 hr. after Start of Fumigation [5, 11]: 1
Number alive, 3 hrs. after Start of Fumigation [5, 11]: 2
Number alive, 6 hrs after Start of Fumigation [5, 11]: 0
Number dead, 1 hr. after Start of Fumigation [5, 11]: 3
Number dead, 3 hrs. after Start of Fumigation [5, 11]: 2
Number dead, 6 hrs after Start of Fumigation [5, 11]: 8
Number alive, 1 hr. after 1st Fumigation [5, 12]: 5
Number alive, 3 hrs. after 1st Fumigation [5, 12]: 2
Number alive, 6 hrs after 1st Fumigation [5, 12]: 4
Number dead, 1 hr. after 1st Fumigation [5, 12]: 1
Number dead, 3 hrs. after 1st Fumigation [5, 12]: 4
Number dead, 6 hrs after 1st Fumigation [5, 12]: 2
Effectiveness against exposed beetles and larvae (wood and storage pests; Conclusion of Examples 1-5): very effective
Comparison of action on wood and storage pests (wood and storage pests; Example 7, against several of the pest species tested): superior to chlorodifluoroacetyl fluoride
Number alive, 1 hr. after Start of Fumigation [6, 11]: 0
Number alive, 3 hrs. after Start of Fumigation [6, 11]: 1
Number alive, 6 hrs after Start of Fumigation [6, 11]: 0
Number dead, 1 hr. after Start of Fumigation [6, 11]: 4
Number dead, 3 hrs. after Start of Fumigation [6, 11]: 2
Number dead, 6 hrs after Start of Fumigation [6, 11]: 7
Number alive, 1 hr. after 1st Fumigation [6, 12]: 2
Number alive, 3 hrs. after 1st Fumigation [6, 12]: 0
Number dead, 1 hr. after 1st Fumigation [6, 12]: 3
Number dead, 3 hrs. after 1st Fumigation [6, 12]: 10
Effectiveness against termites in comparison test (termites; compared with SO2F2): as effective as SO2F2
Speed of effect on termites in wood (termites; compared with sulfuryl fluoride, penetrates wood more quickly): slightly faster effect
Number alive, 30 min. after Start of Fumigation [7]: 0
Number dead, 30 min. after Start of Fumigation [7]: 6
Effectiveness against wood pests ([8]; Conclusion, especially at temperatures in excess of 20° C.): very effective
Condition of the larvae of the wood pests after 24 hours ([8]; Example 4, house longhorn beetle larvae and 2 common furniture beetle larvae, gas 36.5 g/m^3, 19.3° C., evaluated only after 24 hours): dead
Number alive, 1 hr. after Start of Fumigation [9, 10]: 0
Number dead, 1 hr. after Start of Fumigation [9, 10]: 10
Number alive, 30 min. after Start of Fumigation [9, 11]: 0
Number dead, 30 min. after Start of Fumigation [9, 11]: 10
Number alive, 30 min. after 1st Fumigation [9, 12]: 0
Number dead, 30 min. after 1st Fumigation [9, 12]: 10
